“Also recorded” adds a separate entry of the source.
Test system: adult subjects with Major Depressive Disorder
Assay: Phase 3 open-label 1-year study: safety and tolerability (TEAEs, SAEs, C-SSRS)
Assay type: in vivo, human
Experimental: Primary Objective: To determine the safety and tolerability of initial treatment and re-treatment(s) with Compound (1) in adults with Major Depressive Disorder (MDD) currently experiencing a major depressive episode (MDE) over a 1-year period.
Study Population: Subjects were 18-75 years old, diagnosed with major depressive disorder (MDD) with a MADRS total score of ≥28 and a HAM-D total score of ≥20 at Screening and Day 1 (prior to dosing).
Treatment Groups: The 30 mg and 50 mg dose groups were separated by time of enrollment. The study is comprised of two cohorts: one with Compound (1) 30 mg as a starting dose (30 mg Cohort: n=725), an initial cohort with Compound (1) 50 mg as a starting dose (50 mg Cohort: n=199). A patient receiving Compound (1) 30 mg could be dose reduced to 20 mg and patients receiving Compound (1) 50 mg could be dose reduced to 40 mg (based on tolerability). In all cohorts, Compound (1) is self-administered by patients as an oral therapy once nightly with food for 14 days.
The study has a Screening Period of up to 28 days, a 14-day Treatment Period, and up to 1 year of Follow-up. FIG. 1 is an overview of the study.
Antidepressants were permitted provided subjects were on a stable dose for at least 60 days prior to Day 1 and agreed to continue on the stable dose through the follow-up period (Day 42). Initiation of new antidepressants or any other medications that may potentially have an impact on efficacy or safety endpoints were not allowed between screening and completion of the Day 42 assessments.
Eligible subjects were given Compound (1)—to be taken at home in the evening with meal.
Subjects who continued in the Observation Period were monitored remotely via PHQ-9 assessment every two weeks. If PHQ-9 score was >=10 at any assessment, PHQ-9 assessment was switch to every week until the score came down below 10 or the subject was dosed with Compound (1) in a subsequent cycle, whichever was earlier. A subject was to come back to the site for HAM-D assessment within a week of PHQ-9 score >=10; if the HAM-D total score >=20 and at least 56 days had elapsed since the last dose of Compound (1), another dosing cycle of Compound (1) were to start. If any of these criteria were not met, the subject couldn't be treated with Compound (1) at that time. Without the trigger of PHQ-9>=10 the subject was to have a clinic visit every 8 weeks. A subject could have at most 5 cycles of treatment within a year. FIG. 2 is a depiction of the eligibility criteria of the study.
Dose reduction from 30 mg to 20 mg or 50 mg to 40 mg was allowed in any treatment cycle if the safety and/or tolerability of the subject so warrants. […] Subjects who dose reduced from 30 mg to 20 mg still started with 30 mg in the next treatment cycle.
The cohorts pertaining to the different doses that the subjects received were defined as following: • 50 mg cohort: This cohort includes subjects who have initiated treatment with 50 mg and received re-treatment with 50 mg only. • 30 mg cohort: This cohort includes subjects who have initiated treatment with 30 mg regardless of the dose they have received in re-treatments. • Low dose cohort: This cohort includes subjects who have initiated treatment with 30 mg and received re-treatment with 30 mg only. • Dose switch cohort: This cohort includes subjects who have received initial treatment with 30 mg and at least one subsequent re-treatment with 50 mg. • Study Period X: starts on the date of the first dose of Compound (1) in cycle X and goes up to one day prior to the first dose of the next cycle. […]

[1] = 50 mg Cohort, one-year follow-up (Example 4)
[2] = Low Dose Cohort, ATD use at period-specific baseline No, Study Period 1
[3] = Low Dose Cohort, ATD use at period-specific baseline No, Study Period 2

Compound: C[C@@]1(O)CC[C@H]2[C@H](CC[C@@H]3[C@@H]2CC[C@]2(C)[C@@H](C(=O)Cn4cc(C#N)cn4)CC[C@@H]32)C1 [Compound (1), 1-(2-((3R,5R,8R,9R,10S,13S,14S,17S)-3-hydroxy-3,13-dimethylhexadecahydro-1H-cyclopenta[a]phenanthren-17-yl)-2-oxoethyl)-1H-pyrazole-4-carbonitrile]
- Subjects with at least one TEAE leading to study drug discontinuation (30 mg Cohort (N = 725)): 19 (2.6%)
- Subjects with at least one TEAE leading to study withdrawal (30 mg Cohort (N = 725)): 32 (4.4%)
- Subjects with at least one serious TEAE (30 mg Cohort (N = 725)): 20 (2.8%)
- TEAE severity Mild, subjects n (%) (30 mg Cohort (N = 725)): 200 (27.6%)
- TEAE severity Moderate, subjects n (%) (30 mg Cohort (N = 725)): 248 (34.2%)
- TEAE severity Severe / subjects with at least one severe TEAE, n (%) (30 mg Cohort (N = 725)): 45 (6.2%)
- Events of loss of consciousness (30 mg and 50 mg, as of the cutoff date): No events of loss of consciousness
- Possibly or probably related SAEs (50 mg Cohort): Confusional state; also recorded: Asthenia; also recorded: Delirium
- Subjects with at least one serious TEAE (50 mg Cohort (N = 199)): 7 (3.5%)
- TEAE Arthralgia, subjects n (%) (50 mg Cohort (N = 199)): 1 (0.5%)
- TEAE Back Pain, subjects n (%) (50 mg Cohort (N = 199)): 0%
- TEAE Diarrhea, subjects n (%) (50 mg Cohort (N = 199)): 4 (2.0%)
- TEAE Dizziness, subjects n (%) (50 mg Cohort (N = 199)): 30 (15.1%)
- TEAE Dry Mouth, subjects n (%) (50 mg Cohort (N = 199)): 7 (3.5%)
- TEAE Fatigue, subjects n (%) (50 mg Cohort (N = 199)): 5 (2.5%)
- TEAE Headache, subjects n (%) (50 mg Cohort (N = 199)): 20 (10.1%)
- TEAE Insomnia, subjects n (%) (50 mg Cohort (N = 199)): 10 (5.0%)
- TEAE Nausea, subjects n (%) (50 mg Cohort (N = 199)): 11 (5.5%)
- TEAE Sedation, subjects n (%) (50 mg Cohort (N = 199)): 18 (9.0%)
- TEAE Somnolence, subjects n (%) (50 mg Cohort (N = 199)): 29 (14.6%)
- TEAE Upper Respiratory Tract Infection, subjects n (%) (50 mg Cohort (N = 199)): 1 (0.5%)
- TEAE severity Mild, subjects n (%) (50 mg Cohort (N = 199)): 45 (22.6%)
- TEAE severity Moderate, subjects n (%) (50 mg Cohort (N = 199)): 65 (32.7%)
- TEAE severity Severe / subjects with at least one severe TEAE, n (%) (50 mg Cohort (N = 199)): 15 (7.5%)
- Withdrawn in Treatment Cycle 1: Adverse event, n (%) (50 mg Cohort (n = 199)): 11 (5.5%)
- Maximum severity of TEAEs reported by the majority of subjects [1]: mild to moderate
- TEAE Dizziness, subjects n (%) [1]: 15.1%
- TEAE Headache, subjects n (%) [1]: 12.7%
- TEAE Insomnia, subjects n (%) [1]: 7.0%
- TEAE Nausea, subjects n (%) [1]: 6.5%
- TEAE Sedation, subjects n (%) [1]: 10.1%
- TEAE Somnolence, subjects n (%) [1]: 16.1%
- TEAE tremor, subjects (n; %) [1]: 5.5%
- Subjects reporting TEAEs leading to discontinuation of study drug (50 mg Cohort, one-year follow-up (Example 4), 13/199): 6.5%
- Subjects reporting TEAEs leading to withdrawal from study (50 mg Cohort, one-year follow-up (Example 4), 16/199): 8.0%
- Subjects reporting at least one adverse event (50 mg Cohort, one-year follow-up (Example 4), 137 of 199): 68.8%
- Subjects reporting TEAEs leading to dose reduction, n/N (50 mg cohort, Cycle 2): 2/26
- Proportion of subjects reporting TEAEs (50 mg cohort, as printed in b423 (46/76)): 60.5%
- Subjects reporting TEAEs leading to dose reduction (50 mg cohort, overall (34/199)): 17.1%
- Tolerability (Compound (1) 50 mg, 50 mg Cohort followed up to one year (Example 4)): generally well-tolerated
- Subjects with at least one serious TEAE (Dose Switch Cohort (N = 80)): 1 (1.3%)
- TEAE Arthralgia, subjects n (%) (Dose Switch Cohort (N = 80)): 5 (6.3%)
- TEAE Back Pain, subjects n (%) (Dose Switch Cohort (N = 80)): 5 (6.3%)
- TEAE Diarrhea, subjects n (%) (Dose Switch Cohort (N = 80)): 11 (13.8%)
- TEAE Dizziness, subjects n (%) (Dose Switch Cohort (N = 80)): 7 (8.8%)
- TEAE Dry Mouth, subjects n (%) (Dose Switch Cohort (N = 80)): 3 (3.8%)
- TEAE Fatigue, subjects n (%) (Dose Switch Cohort (N = 80)): 8 (10.0%)
- TEAE Headache, subjects n (%) (Dose Switch Cohort (N = 80)): 13 (16.3%)
- TEAE Insomnia, subjects n (%) (Dose Switch Cohort (N = 80)): 5 (6.3%)
- TEAE Nausea, subjects n (%) (Dose Switch Cohort (N = 80)): 3 (3.8%)
- TEAE Sedation, subjects n (%) (Dose Switch Cohort (N = 80)): 11 (13.8%)
- TEAE Somnolence, subjects n (%) (Dose Switch Cohort (N = 80)): 10 (12.5%)
- TEAE Upper Respiratory Tract Infection, subjects n (%) (Dose Switch Cohort (N = 80)): 5 (6.3%)
- TEAE severity Mild, subjects n (%) (Dose Switch Cohort (N = 80)): 13 (16.3%)
- TEAE severity Moderate, subjects n (%) (Dose Switch Cohort (N = 80)): 36 (45.0%)
- TEAE severity Severe / subjects with at least one severe TEAE, n (%) (Dose Switch Cohort (N = 80)): 8 (10.0%)
- Proportion of subjects reporting TEAEs (Dose Switch cohort, as printed in b423 (37/48)): 77.1%
- Subjects reporting TEAEs leading to dose reduction (Dose switch cohort, Cycle 1 while on 30 mg): 2.5%
- Subjects reporting TEAEs leading to dose reduction (Dose switch cohort, Cycle 2 while on 30 mg): 2.5%
- Subjects reporting TEAEs leading to dose reduction (Dose switch cohort, Cycle 3 while switched to 50 mg): 4.2%
- Subjects reporting TEAEs leading to dose reduction (Dose switch cohort, Cycle 4 while switched to 50 mg): 3.8%
- Subjects reporting TEAEs leading to dose reduction (Dose switch cohort, Cycle 5 while switched to 50 mg): 17.4%
- Subjects reporting TEAEs leading to dose reduction (Dose switch cohort, overall (12/80)): 15.0%
- Possibly or probably related SAEs (Low Dose Cohort): Suicidal ideation
- Subjects with at least one serious TEAE (Low Dose Cohort (N = 645)): 19 (2.9%)
- TEAE Arthralgia, subjects n (%) (Low Dose Cohort (N = 645)): 14 (2.2%)
- TEAE Back Pain, subjects n (%) (Low Dose Cohort (N = 645)): 18 (2.8%)
- TEAE Diarrhea, subjects n (%) (Low Dose Cohort (N = 645)): 43 (6.7%)
- TEAE Dizziness, subjects n (%) (Low Dose Cohort (N = 645)): 47 (7.3%)
- TEAE Dry Mouth, subjects n (%) (Low Dose Cohort (N = 645)): 40 (6.2%)
- TEAE Fatigue, subjects n (%) (Low Dose Cohort (N = 645)): 27 (4.2%)
- TEAE Headache, subjects n (%) (Low Dose Cohort (N = 645)): 90 (14.0%)
- TEAE Insomnia, subjects n (%) (Low Dose Cohort (N = 645)): 31 (4.8%)
- TEAE Nausea, subjects n (%) (Low Dose Cohort (N = 645)): 25 (3.9%)
- TEAE Sedation, subjects n (%) (Low Dose Cohort (N = 645)): 29 (4.5%)
- TEAE Somnolence, subjects n (%) (Low Dose Cohort (N = 645)): 76 (11.8%)
- TEAE Upper Respiratory Tract Infection, subjects n (%) (Low Dose Cohort (N = 645)): 52 (8.1%)
- TEAE severity Mild, subjects n (%) (Low Dose Cohort (N = 645)): 187 (29.0%)
- TEAE severity Moderate, subjects n (%) (Low Dose Cohort (N = 645)): 212 (32.9%)
- TEAE severity Severe / subjects with at least one severe TEAE, n (%) (Low Dose Cohort (N = 645)): 37 (5.7%)
- Withdrawn in Treatment Cycle 1: Adverse event, n (%) (Low Dose Cohort (n = 645)): 15 (2.3%)
- Subjects with a TEAE leading to study drug discontinuation [2]: (3.2%)
- Subjects with a Treatment cycle period AE leading to study withdrawal [2]: (3.7%)
- Subjects with at least one TEAE [2]: (67.5%)
- Subjects with at least one Treatment cycle period TEAE [2]: (53.6%)
- Subjects with at least one Treatment cycle period serious TEAE [2]: (1.3%)
- Subjects with at least one Treatment cycle period severe TEAE [2]: (2.6%)
- Subjects with at least one Treatment period AE [2]: (51.2%)
- Subjects with a TEAE leading to study drug discontinuation [3]: 1 (0.8%)
- Subjects with a Treatment cycle period AE leading to study withdrawal [3]: 3 (2.5%)
- Subjects with at least one TEAE [3]: 75 (63.6%)
- Subjects with at least one Treatment cycle period TEAE [3]: 58 (49.2%)
- Subjects with at least one Treatment cycle period serious TEAE [3]: 0%
- Subjects with at least one Treatment cycle period severe TEAE [3]: 2 (1.7%)
